Measured values: paper PMC10674535, “Development and Evaluation of a Self-Nanoemulsifying Drug Delivery System for Sinapic Acid with Improved Antiviral Efficacy against SARS-CoV-2” (Pharmaceutics, 2023)
Values after ≈ are worked out from the molar mass of the structure shown. Like-named read-outs stand apart in the source and are kept apart here.

What was measured:
[1] = Equilibrium (saturated) solubility of SA in oils, surfactants and cosurfactants (isothermal method); format: physicochemical; conditions: room temperature; for solubility at 3 days: read-out: Saturated solubility of sinapic acid; for Saturated solubility of sinapic acid: 3 days, listed as SA
Description: The equilibrium solubility of SA was studied in various oils, surfactants, and cosurfactants. Oils of different saturation degrees (medium- or long-chain triglycerides) were utilized to create an SNE to test their solubilization and nano-emulsification ability. The oil with the highest ability to solubilize SA was chosen due to its significant impact on drug solubilization ability and absorption. The tested oils included Labrafil, Capryol-90, Labrafac, olive oil, anise oil, almond oil, soybean oil, and corn oil. The screened surfactants were hydrophilic non-ionic surfactants (Cremophor El, Tween 20, and Tween 80); they have high HLB values and low oral toxicity. Labrasol, Transcutol, PEG 400, and propylene glycol were the screened cosurfactants. An isothermal method previously reported in the literature was utilized for the solubility determination. In brief, 300 mg of SA was added to 1 mL of each component in screw-capped glass vials and mixed using a vortex mixer. The mixtures were then transferred to a thermodynamic water bath shaker (JULABO™, Julabo Labortechnik GMBH, Seelbach, Germany) for continuous shaking at a speed of 100 rpm at room temperature for three days, followed by centrifugation at 4000 rpm for 25 min. SA concentration was measured spectrophotometrically at 322 nm after the supernatant was diluted with methanol using a magnetic stirrer at 500 rpm for 2 min at room temperature. The results of this study provide important insights into the solubility of SA in various oils, surfactants, and cosurfactants, which is crucial for the formulation of SA in a self-nanoemulsifying dosage form.

[2] = in vitro; conditions: African green monkey
[3] = system: SARS-CoV-2 (hCoV-19/Egypt/NRC-3/2020 isolate); assay: microbe, parasite or virus in culture; format: cell-based; conditions: Severe acute respiratory syndrome coronavirus 2, Vero C1008, 48 h, read-out: IC50, in vitro antiviral activity against SARS-CoV-2
[4] = biological target: T1, 3CL Protease, tagged (SARS-CoV-2) (Mpro) (Severe acute respiratory syndrome coronavirus 2, UniProt P0DTD1); assay: Mpro enzyme assay (3CL Protease FRET assay kit); format: biochemical; conditions: excitation 360 nm, emission 460 nm, read-out: IC50, in vitro Mpro inhibitory activity
T1 construct: 3CL Protease, tagged (SARS-CoV-2) Assay Kit; unspecified tag (printed only as 'tagged'); purchased BPS Bioscience, Inc. 79955-1
Description: The in vitro FRET assay was monitored at an emission wavelength of 460 nm with an excitation at 360 nm using a Flx800 fluorescence spectrophotometer (BioTek Instruments, Winooski, VT, USA).

For `COc1cc(/C=C/C(=O)O)cc(OC)c1O` [Sinapic acid], the solubility at 3 days ([1]; Capryol 90 (oil), oil or lipid, thermodynamic from solid, in Capryol 90 (oil)) was 22.5 mg/mL (≈ 100 mM), the solubility at 3 days ([1]; Cremophore El (surfactant), thermodynamic from solid, in Cremophore El (surfactant)) was 138 mg/mL (≈ 617 mM) and the solubility at 3 days ([1]; Labrafac (oil), oil or lipid, thermodynamic from solid, in Labrafac (oil)) was 14.3 mg/mL (≈ 63.9 mM). The solubility at 3 days ([1]; Labrafil (oil), in Labrafil (oil)) was 30 mg/mL (≈ 134 mM), the solubility at 3 days ([1]; Labrafil (oil), oil or lipid, thermodynamic from solid, in Labrafil (oil)) was 30 mg/mL (≈ 134 mM) and the solubility at 3 days ([1]; Labrasol, thermodynamic from solid, in Labrasol) was 60.4 mg/mL (≈ 269 mM). It also gave a solubility at 3 days ([1]; PEG 400 (co-surfactant), organic solvent or mixture, thermodynamic from solid, in PEG 400 (co-surfactant)) of 102 mg/mL (≈ 455 mM), a solubility at 3 days ([1]; Transcutol (co-surfactant), organic solvent or mixture, thermodynamic from solid, in Transcutol (co-surfactant)) of 193 mg/mL (≈ 860 mM) and a solubility at 3 days ([1]; Tween 20 (surfactant), thermodynamic from solid, in Tween 20 (surfactant)) of 123 mg/mL (≈ 550 mM). The solubility at 3 days ([1]; Tween 80 (surfactant), thermodynamic from solid, in Tween 80 (surfactant)) was 78.8 mg/mL (≈ 352 mM), the solubility at 3 days ([1]; almond oil, oil or lipid, thermodynamic from solid, in almond oil) was 1.71 mg/mL (≈ 7.63 mM) and the solubility at 3 days ([1]; anise oil, oil or lipid, thermodynamic from solid, in anise oil) was 5.02 mg/mL (≈ 22.4 mM). The solubility at 3 days ([1]; corn oil, oil or lipid, thermodynamic from solid, in corn oil) was 0.81 mg/mL (≈ 3.61 mM), the “Saturated solubility of sinapic acid” value ([1]; in Cremophore El (surfactant)) was 138 mg/mL and the “Saturated solubility of sinapic acid” value ([1]; in Labrasol) was 60 mg/mL. The “Saturated solubility of sinapic acid” value ([1]; in PEG 400 (co-surfactant)) was 102 mg/mL, the “Saturated solubility of sinapic acid” value ([1]; in Transcutol (co-surfactant)) was 192 mg/mL and the “Saturated solubility of sinapic acid” value ([1]; in Tween 80 (surfactant)) was 78 mg/mL. The “Saturated solubility of sinapic acid” value ([1]; in propylene glycol (co-surfactant)) was 58 mg/mL, the solubility at 3 days ([1]; olive oil, oil or lipid, thermodynamic from solid, in olive oil) was 7.11 mg/mL (≈ 31.7 mM) and the solubility at 3 days ([1]; propylene glycol (co-surfactant), organic solvent or mixture, thermodynamic from solid, in propylene glycol (co-surfactant)) was 58.4 mg/mL (≈ 260 mM). The solubility at 3 days ([1]; soybean oil, oil or lipid, thermodynamic from solid, in soybean oil) was 1.25 mg/mL (≈ 5.58 mM), the CC50 [2] was 196 ± 15.1 µg/mL (≈ 0.875 mM) and the IC50 [3] was 2.53 ± 0.065 µg/mL (≈ 0.0113 mM). The IC50 [4] was 6.74 ± 0.95 µM.

`CCC(CC)COC(=O)[C@H](C)N[P@](=O)(OC[C@H]1O[C@@](C#N)(c2ccc3c(N)ncnn23)[C@H](O)[C@@H]1O)Oc1ccccc1` [remdesivir, reference compound] gave an IC50 ([3]; Vero E6 cells, MOI 0.5, viral RNA by real-time PCR after 2 days, n = 3) of 0.036 ± 0.002 µg/mL (≈ 5.97e-05 mM).
